Tests used:
erythrocytes = assay: Improvement effect of erythrocyte deformation (Nuclepore membrane filter method); assay type: in vivo, SHRSP (stroke prone spontaneously hypertensive rat); details: SHRSP; for Volume of erythrocytes passed: 5 μm filter
Procedure: Improvement Effect of Erythrocyte Deformation
Blood was drawn under anesthesia from SHRSP (stroke prone spontaneously hypertensive rat) loaded with 1% saline for 3 weeks, and the time necessary for 0.5 mL of blood to pass through a filter (pore size 5 μm, Nuclepore) was measured by the Nuclepore membrane filter method of Reid et al., based on which the volume (mL/min) of the erythrocytes passed was calculated. The volume of the erythrocytes passed was taken as an index of erythrocyte deformation. A drug was orally administered 1 hour before drawing the blood. In the same manner as above, a comparative experiment was performed using sarpogrelate as a control compound.
(§1) In the Table, the values are mean±standard error (n=6).

[1] = tested on: collateral circulation model; assay: Promotion of collateral circulation (femoral artery ligation, ADP-added platelet suspension, leg blood flow); assay type: in vivo, rat; details: for Change in blood flow, control side / Change in blood flow, femoral artery ligation side: 1 hour, after ADP-added platelet suspension
Procedure: Promotion of Collateral Circulation
A collateral circulation model was prepared by rat femoral artery ligation, and a test drug was orally administered 7 days later. At 1 hour from the test drug administration, ADP-added platelet suspension (200 μM) was administered under anesthesia into the femoral artery (1 mL/kg), and changes in the leg blood flow were measured. In the same manner as above, a comparative experiment was performed using cilostazol as a control compound.
as §1

[2] = tested on: lauric acid-induced peripheral arterial obstruction model; assay: Rat lauric acid-induced peripheral arterial obstruction model (therapeutic effect); assay type: in vivo, Wistar rats; details: for Lesion score 1 day later / Lesion score 3 days later / Lesion score 5 days later / Lesion score 7 days later: score 0 normal to 6; for peripheral circulatory disturbance (in words): from one day after the lauric acid injection
Procedure: (§2) Effect on Rat Lauric Acid-induced Peripheral Arterial Obstruction Model (Therapeutic Effect) Under anesthesia, lauric acid (0.75 mg/0.15 mL) was injected into the right femoral artery of Wistar rats (6-8 weeks of age). A drug was administered one day after the lauric acid injection. The drug was orally administered twice a day for 7 days. In the same manner as above, a comparative experiment was performed using sarpogrelate and cilostazol as a control compound. In the Table, the values are mean±standard error (n=11).

[3] = tested on: lauric acid-induced peripheral arterial obstruction model; assay: Lauric acid-induced peripheral arterial obstruction model (preventive effect); assay type: in vivo, Wistar rats; details: for peripheral circulatory disturbance (in words): prior to the lauric acid injection; for Lesion score 1 day later / Lesion score 3 days later / Lesion score 5 days later / Lesion score 7 days later: first dose 1 h before lauric acid, score 0 normal to 6
Procedure: as §2, with “on” for “on Rat”, “Model (Preventive” for “Model (Therapeutic”, “administered 1 hour before” for “administered one day after”, “for 8” for “for 7”, “using” for “using sarpogrelate and”, “error (n=12).” for “error (n=11).”

[4] = tested on: rat intermittent claudication model; assay: Effect on rat intermittent claudication model (femoral artery ligation, treadmill walking distance); assay type: in vivo; details: for walking distance 8 days after administration (Δm): change vs value before ligation, mean±SE
Text: Effect on Rat Intermittent Claudication Model
Rat was anesthetized and the right thigh was opened to expose femoral artery, which was ligated with a silk thread at a position nearest possible to the heart (upstream). In addition, a position about 1 cm from the ligation site to the periphery was ligated with a silk thread, making two ligature sites. Starting from the next day of preparation of a model to day 8 therefrom, a drug was orally administered twice a day for 8 days. However, the drug was orally administered only in the evening of the first day of administration and only in the morning of the final administration day. The walking distance was measured one day before model preparation (initial value), day 1, day 5 and day 8 with a treadmill apparatus. Using a gait test table without an angle of inclination, the conveyor advance speed was first set to 15 m/min, and the speed was increased every 5 min by 5 m/min until the animal failed walking three times, based on which the walking distance of the rat was measured. In the same manner as above, a comparative experiment was performed using sarpogrelate and cilostazol, respectively as a control compound.
In the Table, the values are mean±standard error (n=8 but n=6 only for sarpogrelate group).

5-HT2 receptor = target: T1, 5-HT2 receptor (Rattus norvegicus, UniProt P14842); assay: Affinity for 5-HT2 receptor (binding with 3H-ketanserine); details: rat cerebral cortex crude synapse membrane, 37° C. 20 min
T1 construct: A crude synapse membrane was prepared from a freeze-dried rat cerebral cortex; from tissue; host or cells: rat cerebral cortex (crude synaptic membrane)
T1 sequence (P14842 whole entry): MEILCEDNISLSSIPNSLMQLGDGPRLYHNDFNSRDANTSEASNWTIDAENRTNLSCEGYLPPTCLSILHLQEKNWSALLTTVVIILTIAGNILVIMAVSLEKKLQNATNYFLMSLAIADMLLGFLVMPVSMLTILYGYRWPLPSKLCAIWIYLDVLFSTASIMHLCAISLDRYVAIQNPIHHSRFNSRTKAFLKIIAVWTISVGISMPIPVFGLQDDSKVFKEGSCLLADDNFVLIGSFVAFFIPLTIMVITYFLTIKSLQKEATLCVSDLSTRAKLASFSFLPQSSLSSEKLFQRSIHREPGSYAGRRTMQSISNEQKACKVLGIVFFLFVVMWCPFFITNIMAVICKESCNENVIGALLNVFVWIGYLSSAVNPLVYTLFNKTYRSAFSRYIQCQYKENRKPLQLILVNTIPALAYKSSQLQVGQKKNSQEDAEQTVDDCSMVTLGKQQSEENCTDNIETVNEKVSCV
Procedure: Affinity for 5-HT2 Receptor (Binding with ^3H-ketanserine)
Preparation of a crude synapse membrane and a binding test were performed according to the method of Leysen J. E. et al. [Molecular Pharmacology, Vol. 21, p. 301 (1982)]. A crude synapse membrane was prepared from a freeze-dried rat cerebral cortex, and the membrane specimen and ^3H-ketanserine were incubated in the presence of a test compound at 37° C. for 20 min. After the completion of the reaction, the reaction mixture was immediately filtered by suction on a Whatmann GF/B filter (trademark), and the radioactivity on the filter was measured on a liquid scintillation counter. The amount of non-specific binding was measured in the presence of 10 μM mianserin. The 50% inhibition concentration (IC50) of the test compound was calculated by the nonlinear regression. In the same manner as above, a comparative test was performed using sarpogrelate as a control compound.

[5] = tested on: platelet rich plasma (PRP); assay: Platelet aggregation suppressive action (collagen + 5-HT, platelet rich plasma); assay type: cell-based, Japanese white rabbit; details: Oryctolagus cuniculus, rabbit PRP, collagen + 3 μM 5-HT
Procedure: Platelet Aggregation Suppressive Action
Preparation of platelet rich plasma and a platelet aggregation test were performed according to the method of Born, G. V. R. et al. [Journal of Physiology, Vol. 168, p. 178 (1963)] as in the following. Blood was drawn from the carotid of male Japanese white rabbit with local anesthesia with xylocaine, using a syringe previously added with 3.8% sodium citrate in a 1/10 amount of the blood. This blood was centrifuged at 1000 round/min for 10 min at room temperature to give a platelet rich plasma (PRP) supernatant. This supernatant was further centrifuged at 3000 round/min for 10 min to give a platelet poor plasma (PPP) supernatant. Taking the measurement values of PRP and PPP as 0% aggregation and 100% aggregation, respectively, the platelet aggregation rate (%) was calculated. A test compound (3 μl) was added to 300 μl of PRP and the mixture was incubated at 37° C. for 5 min. Thereto were added, as aggregation inducing substances, collagen at a concentration prohibitive on aggregation by its single administration, and the final concentration of 3 μM of 5-HT, and the aggregation reaction was recorded for 7 min. The effect of the test compound was determined as percent suppression relative to the control group, using the maximum aggregation as an index. The 50% inhibition concentration (IC50) of the test compound was calculated by the nonlinear regression. In the same manner as above, a comparative experiment was conducted for the use of sarpogrelate and cilostazol, respectively as a control compound.

[6] = Effect on heart rate and blood pressure; assay type: in vivo, Wistar rat; details: for Change of blood pressure / Change of heart rate: 1 hour, no anesthesia or restriction
Procedure: Effect on Heart Rate and Blood Pressure
A catheter was placed in the femoral artery of Wistar rat, and the blood pressure and heart rate were invasively monitored under no anesthesia or restriction. At 1 hour from the oral administration of the test drug, blood pressure and heart rate were taken. In the same manner as above, a comparative experiment was performed using cilostazol as a control compound.
In the Table, the values are mean±standard error (n=4).

[7] = 10 mg/kg oral twice a day from one day after lauric acid
[8] = 30 mg/kg oral twice a day from one day after lauric acid
[9] = 100 mg/kg oral twice a day from one day after lauric acid
[10] = control compounds, 100 mg/kg per Table 2

For O=C(N[C@H]1CCN(CCc2ccc(F)cc2)C1)C12CC3CC(CC(C3)C1)C2 [Example 2, (S)-N-(1-(2-(4-fluorophenyl)ethyl)pyrrolidin-3-yl)-1-adamantanecarboxamide], the “volume of the erythrocyte passed, % of the vehicle group” value (“volume … % of the vehicle group” for short) (erythrocytes; 10 mg/kg) was 133%, the “Volume of erythrocytes passed” value (erythrocytes; 10 mg/kg oral 1 hour before drawing blood) was 1.05 ± 0.13 mL/min and the “volume … % of the vehicle group” value (erythrocytes; 30 mg/kg) was 186%. For the same compound, the “Volume of erythrocytes passed” value (erythrocytes; 30 mg/kg oral 1 hour before drawing blood) was 1.47 ± 0.19 mL/min, the “decrease in leg blood flow caused by ADP-added platelet suspension (in words)” value ([1]; 10 mg/kg oral) was “suppressed the decrease in the blood flow in the legs on both sides” and the “Change in blood flow, control side” value ([1]; 10 mg/kg oral) was −10.1 ± 1.4 %. For the same compound, the “Change in blood flow, femoral artery ligation side” value ([1]; 10 mg/kg oral) was −11.8 ± 1.2 %, the “Lesion score 1 day later” value [2, 7] was 2.0 ± 0.0 and the “Lesion score 3 days later” value [2, 7] was 2.2 ± 0.1. For the same compound, the “Lesion score 5 days later” value [2, 7] was 2.2 ± 0.4, the “Lesion score 7 days later” value [2, 7] was 2.2 ± 0.4 and the “Lesion score 1 day later” value [2, 8] was 1.8 ± 0.1. The “Lesion score 3 days later” value [2, 8] was 1.7 ± 0.2, the “Lesion score 5 days later” value [2, 8] was 1.3 ± 0.3 and the “Lesion score 7 days later” value [2, 8] was 0.9 ± 0.5. The “peripheral circulatory disturbance (in words)” value ([2]; 30 mg/kg) was “significantly reduced the peripheral circulatory disturbance”, the “peripheral circulatory disturbance (in words)” value ([3]; 10 mg/kg and 30 mg/kg) was “significantly reduced the peripheral circulatory disturbance” and the “Lesion score 1 day later” value ([3]; 10 mg/kg oral twice a day) was 1.8 ± 0.1. The “Lesion score 3 days later” value ([3]; 10 mg/kg oral twice a day) was 2.1 ± 0.2, the “Lesion score 5 days later” value ([3]; 10 mg/kg oral twice a day) was 1.8 ± 0.3 and the “Lesion score 7 days later” value ([3]; 10 mg/kg oral twice a day) was 1.9 ± 0.5. For the same compound, the “Lesion score 1 day later” value ([3]; 30 mg/kg oral twice a day) was 1.8 ± 0.2, the “Lesion score 3 days later” value ([3]; 30 mg/kg oral twice a day) was 2.0 ± 0.3 and the “Lesion score 5 days later” value ([3]; 30 mg/kg oral twice a day) was 1.5 ± 0.4. For the same compound, the “Lesion score 7 days later” value ([3]; 30 mg/kg oral twice a day) was 1.2 ± 0.5, the “walking distance 8 days after administration (Δm)” value (from here on “walking distance 8 days … (Δm)”) ([4]; 3 mg/kg oral twice a day) was −94.3 ± 36.1 m and the “walking distance at day 8 of ligation (in words)” value (“walking distance … (in words)” for short) ([4]; 3 mg/kg, 10 mg/kg and 30 mg/kg, b.i.d.) was “significantly increased”. The “walking distance 8 days … (Δm)” value ([4]; 10 mg/kg oral twice a day) was −89.9 ± 22.2 m, the “walking distance 8 days … (Δm)” value ([4]; 30 mg/kg oral twice a day) was −88.6 ± 25.0 m and the IC50 (5-HT2 receptor) was 0.18 nM. The IC50 [5] was 1.9 nM, the “influence on heart rate or blood pressure (in words)” value ([6]; 30 mg/kg and 100 mg/kg) was “did not influence the heart rate or blood pressure” and the “Change of blood pressure” value ([6]; 30 mg/kg oral) was 0.0 ± 1.5 mmHg. The “Change of heart rate” value ([6]; 30 mg/kg oral) was −1.3 ± 4.7 beats/min, the “Change of blood pressure” value ([6]; 100 mg/kg oral) was −2.8 ± 0.8 mmHg and the “Change of heart rate” value ([6]; 100 mg/kg oral) was −4.5 ± 5.2 beats/min.

For COc1cccc(CCc2ccccc2OCC(CN(C)C)OC(=O)CCC(=O)O)c1 (stereo not shown) [Sarpogrelate, reference compound], the “volume … % of the vehicle group” value (erythrocytes; 100 mg/kg) was 128%, the “Volume of erythrocytes passed” value (erythrocytes; 100 mg/kg oral 1 hour before drawing blood) was 1.01 ± 0.10 mL/min and the “Lesion score 1 day later” value [2, 9] was 1.9 ± 0.2. For the same compound, the “Lesion score 3 days later” value [2, 9] was 2.3 ± 0.3, the “Lesion score 5 days later” value [2, 9] was 2.1 ± 0.5 and the “Lesion score 7 days later” value [2, 9] was 2.4 ± 0.6. The “walking distance 8 days … (Δm)” value ([4]; 100 mg/kg oral twice a day) was −151.3 ± 35.4 m, the “walking distance … (in words)” value [4, 10] was “increased the walking distance but the increase was not significant” and the IC50 (5-HT2 receptor) was 27 nM. It also gave an IC50 [5] of 260 nM.

With O=C1CCc2cc(OCCCCc3nnnn3C3CCCCC3)ccc2N1 [Cilostazol, reference compound] the “decrease in leg blood flow caused by ADP-added platelet suspension (in words)” value ([1]; 100 mg/kg) was “suppressed a decrease in the blood flow on the ligation side only slightly”, the “Change in blood flow, control side” value ([1]; 100 mg/kg oral) was −27.0 ± 5.0 % and the “Change in blood flow, femoral artery ligation side” value ([1]; 100 mg/kg oral) was −63.3 ± 2.4 %. For the same compound, the “Lesion score 3 days later” value [2, 9] was 1.5 ± 0.3, the “Lesion score 5 days later” value [2, 9] was 1.4 ± 0.4 and the “Lesion score 7 days later” value [2, 9] was 1.3 ± 0.4. The “peripheral circulatory disturbance (in words)” value ([2]; 100 mg/kg) was “significantly reduced the peripheral circulatory disturbance”, the “Lesion score 1 day later” value ([3]; 100 mg/kg oral twice a day) was 1.8 ± 0.1 and the “Lesion score 3 days later” value ([3]; 100 mg/kg oral twice a day) was 2.2 ± 0.2. For the same compound, the “Lesion score 5 days later” value ([3]; 100 mg/kg oral twice a day) was 1.8 ± 0.4, the “Lesion score 7 days later” value ([3]; 100 mg/kg oral twice a day) was 2.2 ± 0.5 and the “peripheral circulatory disturbance (in words)” value ([3]; 100 mg/kg) was “significantly reduced the peripheral circulatory disturbance”. The “walking distance 8 days … (Δm)” value ([4]; 100 mg/kg oral twice a day) was −149.8 ± 22.7 m, the “walking distance … (in words)” value [4, 10] was “increased the walking distance but the increase was not significant” and the IC50 [5] was 1380 nM. For the same compound, the “Change of blood pressure” value ([6]; 100 mg/kg oral) was 1.3 ± 1.3 mmHg, the “Change of heart rate” value ([6]; 100 mg/kg oral) was 43.8 ± 6.7 beats/min and the “influence on heart rate (in words)” value ([6]; 300 mg/kg as printed) was “increased the heart rate”.
